# From patent US9434711B2 (Janssen Pharmaceutica, NV, priority 2007, dated 2016)
# Like-named read-outs stand apart in the source and are kept apart here.
# Molecular target: canine TRPM8 (Canis lupus familiaris, UniProt Q1A7N1)
# Assay: In Vitro Canine TRPM8 Functional Assay (Ca2+ fluorescence, icilin activation)
# Format: cell-based
# Details: for IC50: read-out: IC50; for inhibition at 0.5 µM: compound at 0.5 μM, read-out: % Inh @ 0.5; for inhibition at 0.2 µM: read-out: % Inh @ 0.2
# Summary of the method: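 Eight-point dose-response curves in quadruplicate gave EC50 or IC50 values from a Ca2+-sensitive dye assay in HEK293 cells stably carrying canine TRPM8. Icilin, dosed near its 80% maximal level, followed a 5 min compound exposure.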
# [1] = HEK293 cells stably expressing canine TRPM8, icilin activation, eight-point dose-response
# [2] = canine TRPM8, icilin activation
# [3] = compound at 0.2 μM, canine TRPM8, icilin activation
# Sequence of canine TRPM8 (Q1A7N1 1-1104): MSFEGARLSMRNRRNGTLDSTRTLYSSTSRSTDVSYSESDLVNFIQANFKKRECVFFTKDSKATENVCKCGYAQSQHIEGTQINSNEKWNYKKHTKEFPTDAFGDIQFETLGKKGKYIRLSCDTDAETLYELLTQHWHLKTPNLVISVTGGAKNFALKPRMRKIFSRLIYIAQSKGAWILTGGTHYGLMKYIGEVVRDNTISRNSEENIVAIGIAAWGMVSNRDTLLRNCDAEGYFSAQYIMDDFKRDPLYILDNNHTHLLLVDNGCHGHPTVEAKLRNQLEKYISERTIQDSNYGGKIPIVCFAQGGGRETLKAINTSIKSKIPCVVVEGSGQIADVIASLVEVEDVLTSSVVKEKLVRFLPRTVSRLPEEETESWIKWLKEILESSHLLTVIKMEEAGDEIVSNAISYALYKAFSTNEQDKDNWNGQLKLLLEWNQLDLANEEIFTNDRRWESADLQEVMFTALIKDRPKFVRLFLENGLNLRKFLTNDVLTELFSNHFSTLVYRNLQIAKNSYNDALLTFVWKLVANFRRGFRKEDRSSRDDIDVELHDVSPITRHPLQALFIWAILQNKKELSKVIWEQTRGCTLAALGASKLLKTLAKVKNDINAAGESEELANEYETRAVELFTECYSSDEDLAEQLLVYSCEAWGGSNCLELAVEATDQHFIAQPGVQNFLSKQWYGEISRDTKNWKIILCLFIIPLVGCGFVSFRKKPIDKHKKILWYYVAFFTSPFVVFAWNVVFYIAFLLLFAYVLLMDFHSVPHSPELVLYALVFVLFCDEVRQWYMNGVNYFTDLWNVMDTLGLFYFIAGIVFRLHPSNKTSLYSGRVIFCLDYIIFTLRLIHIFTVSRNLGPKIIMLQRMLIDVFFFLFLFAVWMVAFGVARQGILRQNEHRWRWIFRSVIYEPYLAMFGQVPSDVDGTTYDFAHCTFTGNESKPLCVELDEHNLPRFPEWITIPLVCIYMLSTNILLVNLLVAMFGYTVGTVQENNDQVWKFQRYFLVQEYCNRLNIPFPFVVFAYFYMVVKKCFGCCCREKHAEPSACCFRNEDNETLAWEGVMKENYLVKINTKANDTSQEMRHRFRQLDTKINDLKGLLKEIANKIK
IC50 [1] [nM],inhibition at 0.2 µM [3] [%],SMILES,further results
8.4,–,"O=S(=O)(c1ccccc1)N(Cc1cccc(OC(F)(F)F)c1)c1sc2ccccc2c1Br [Compound 173, N-(3-Bromo-benzo[b]thiophen-2-yl)-N-(3-trifluoromethoxy-benzyl)-benzenesulfonamide]",inhibition at 0.5 µM [2]: 99%
7,99,"Cc1c(N(Cc2ccc(F)c(C(F)(F)F)c2)S(=O)(=O)c2cccc(Oc3ccccc3)c2)sc2ccccc12 [Compound 70, N-(4-Fluoro-3-trifluoromethyl-benzyl)-N-(3-methyl-benzo[b]thiophen-2-yl)-3-phenoxy-benzenesulfonamide]",–
13.4,100,"CC(=O)c1c(N(Cc2ccc(F)c(Cl)c2)S(=O)(=O)c2ccc(Br)cc2)sc2ccccc12 [Compound 733, N-(3-Acetyl-benzo[b]thiophen-2-yl)-4-bromo-N-(3-chloro-4-fluoro-benzyl)benzenesulfonamide]",–
–,–,"Cc1c(N(CCCF)S(=O)(=O)c2ccccc2)sc2ccccc12 [Compound 819, N-(3-Fluoro-propyl)-N-(3-methyl-benzo[b]thiophen-2-yl)-benzenesulfonamide]","inhibition at 0.2 µM (0.2 μM compound, HEK293 cells stably expressing canine TRPM8, icilin activation): 98%; IC50 (HEK293 cells stably expressing canine TRPM8, icilin activation, average of two or more determinations): 21 nM"
5,102,"O=S(=O)(c1ccccc1)N(Cc1ccc(OC(F)(F)F)cc1)c1sc2ccccc2c1C(F)(F)F [Compound 325, N-(3-Trifluoromethyl-benzo[b]thiophen-2-yl)-N-(4-trifluoromethoxy-benzyl)-benzenesulfonamide]",–
4,96,"Cc1c(N(Cc2ccc(F)c(C(F)(F)F)c2)S(=O)(=O)c2ccc3[nH]c(=O)oc3c2)sc2ccccc12 [Compound 66, N-(4-Fluoro-3-trifluoromethyl-benzyl)-N-(3-methyl-benzo[b]thiophen-2-yl)-2-oxo-2,3-dihydro-benzooxazole-6-sulfonamide]",–
–,–,"Cc1c(N(Cc2ccc(F)c(C(F)(F)F)c2)S(=O)(=O)c2ccc3c(c2)CC(N)C3)sc2ccccc12 (stereo not drawn) [Compound 747, 2-Amino-indan-N-(3-methyl-benzo[b]thiophen-2-yl)-N-(4-fluoro-3-trifluoromethyl-benzyl)-N-sulfonamide]",% Inh @ 0.2 (μM) [3]: 48%
11,103,"Cc1c(N(CCCCC(F)(F)F)S(=O)(=O)c2ccc(-c3nsc(=O)[nH]3)cc2)sc2ccccc12 [Compound 640, N-(3-Methyl-benzo[b]thiophen-2-yl)-N-(5,5,5-trifluoro-pentyl)-4-(5-oxo-4,5-dihydro-[1,2,4]thiadiazol-3-yl)-benzenesulfonamide]",–
10,95,"CCS(=O)(=O)N(Cc1ccc(F)c(C(F)(F)F)c1)c1sc2ccccc2c1C#N [Compound 198, N-(3-Cyano-benzo[b]thiophen-2-yl)-N-(4-fluoro-3-trifluoromethyl-benzyl)-ethanesulfonamide]",–
–,41,"O=[N+]([O-])c1ccc(S(=O)(=O)N(CCC(F)(F)F)c2cc3ccccc3s2)cc1 [Compound 498, N-(Benzo[b]thiophen-2-yl)-4-nitro-N-(3,3,3-trifluoro-propyl)-benzenesulfonamide]",–
22.1,101,"COC(=O)CCS(=O)(=O)N(CCCC(F)(F)F)c1sc2ccccc2c1C [Compound 602, N-(3-Methyl-benzo[b]thiophen-2-yl)-N-(4,4,4-trifluoro-butyl)-2-carbomethoxy-ethanesulfonamide]",–
81,–,"Cc1c(N(Cc2ccc(F)c(F)c2)S(=O)(=O)c2cc3ccccc3s2)sc2ccccc12 [Compound 18, N-(3,4-Difluoro-benzyl)-N-(3-methyl-benzo[b]thiophen-2-yl)-benzo[b]thiophene-2-sulfonamide]",inhibition at 0.5 µM [2]: 94%

SMILES,IC50 [1] [nM],inhibition at 0.2 µM [3] [%],further results
"CC(C)(C)OCCN(c1sc2ccccc2c1Br)S(=O)(=O)c1ccc(C(=O)O)cc1 [Compound 275, N-(3-Bromo-benzo[b]thiophen-2-yl)-N-(2-tert-butoxy-ethyl)-4-carboxy-benzenesulfonamide]",3,97,–
